Measurements reported in patent US9375496B2, “Halogenated compounds for cancer imaging and treatment and methods for their use” (The University of British Columbia, priority 2013, dated 2016).

Key:
[1] = biological target: T1, progesterone receptor-beta (PRβ) (Homo sapiens, UniProt P06401); experiment: PRE-luciferase reporter assay in LNCaP cells cotransfected with full-length human PRβ; format: cell-based; conditions: 1.9 μM 8d, 10 nM progesterone, 24 h, LNCaP cells (FIG. 2B)
T1 construct: expression plasmids for full-length human PRβ; expressed in transfected cells; host or cells: LNCaP
T1 sequence (P06401 1-933): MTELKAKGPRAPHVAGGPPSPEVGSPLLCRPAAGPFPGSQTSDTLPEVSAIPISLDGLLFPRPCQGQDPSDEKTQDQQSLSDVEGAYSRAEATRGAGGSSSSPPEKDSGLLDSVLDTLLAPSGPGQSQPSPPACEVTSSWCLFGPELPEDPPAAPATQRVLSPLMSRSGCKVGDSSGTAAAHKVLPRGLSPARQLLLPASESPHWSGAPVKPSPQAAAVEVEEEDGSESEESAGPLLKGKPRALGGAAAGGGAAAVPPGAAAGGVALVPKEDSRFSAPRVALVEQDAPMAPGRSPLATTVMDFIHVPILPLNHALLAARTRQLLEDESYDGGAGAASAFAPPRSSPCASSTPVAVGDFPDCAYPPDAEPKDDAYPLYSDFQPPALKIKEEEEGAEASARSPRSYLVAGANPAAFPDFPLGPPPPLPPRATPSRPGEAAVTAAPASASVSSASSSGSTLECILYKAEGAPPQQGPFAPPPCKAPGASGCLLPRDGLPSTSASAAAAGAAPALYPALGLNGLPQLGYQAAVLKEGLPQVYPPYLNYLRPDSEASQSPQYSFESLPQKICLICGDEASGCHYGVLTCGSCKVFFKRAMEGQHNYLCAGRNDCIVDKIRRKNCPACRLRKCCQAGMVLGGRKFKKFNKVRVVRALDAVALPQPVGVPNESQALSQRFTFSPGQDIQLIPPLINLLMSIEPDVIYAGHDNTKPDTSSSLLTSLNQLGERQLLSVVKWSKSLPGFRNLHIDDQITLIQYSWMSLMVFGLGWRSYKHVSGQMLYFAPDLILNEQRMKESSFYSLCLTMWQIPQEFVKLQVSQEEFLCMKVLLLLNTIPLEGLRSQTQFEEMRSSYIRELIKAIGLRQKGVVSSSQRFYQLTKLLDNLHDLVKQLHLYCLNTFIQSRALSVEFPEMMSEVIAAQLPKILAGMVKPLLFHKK
Method: To assess specificity for the AR, parallel experiments were performed in LNCaP cells with endogenous AR and ectopic expression of other closely related human hormone receptors such as the progesterone receptor-beta (PRβ), glucocorticoid receptor (GR) and estrogen receptor-α (ER).
LNCaP cells were cotransfected with the expression plasmids for full-length human PRβ and the relative reporter (PRE-luciferase) for 24 h, and then treated with DMSO, 5 μM MDV3100, 25 μM Z, or 1.9 μM 8d with or without 10 nM progesterone for 24 h (FIG. 2B). Compound 8d had no effect on the transcriptional activity of closely related PRβ.

recombinant LBD of AR = biological target: T2, recombinant LBD of AR (Homo sapiens, UniProt P10275); experiment: Competitive ligand-binding assay (fluorescent polarization), recombinant AR LBD; conditions: 1 nM fluorescently labeled ligand, 5 h incubation, serial dilution
T2 sequence (P10275 669-900 limits assumed): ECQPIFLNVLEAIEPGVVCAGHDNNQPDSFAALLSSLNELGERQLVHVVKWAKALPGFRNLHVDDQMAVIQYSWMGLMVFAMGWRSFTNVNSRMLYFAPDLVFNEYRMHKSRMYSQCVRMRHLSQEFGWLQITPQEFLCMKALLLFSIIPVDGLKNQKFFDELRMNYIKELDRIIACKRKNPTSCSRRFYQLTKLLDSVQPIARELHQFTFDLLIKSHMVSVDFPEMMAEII
Method: (§1) Competitive ligand-binding assays to detect the displacement of fluorescently labeled ligand from recombinant LBDs (ligand binding domains) of AR, PR, GR and estrogen receptor (ER) by R1881, MDV3100, Z (also referred to as EPI-002 or EPI) or 8d (also referred to as iodinated EPI) were performed. FIGS. 14A-14E display competitive ligand-binding curves to indicate whether R1881, Z, antiandrogens (enzalutamide, hydroxyflutamide, bicalutamide) or 8d can displace 1 nM fluorescently labeled cognant ligand from recombinant LBDs of steroid hormone receptors by using fluorescent polarization (mP). Serial dilution was performed for each test compound. Mixtures were incubated for 5 h before measurement of fluorescent polarization.

recombinant LBD of PR = biological target: T3, recombinant LBD of PR (Homo sapiens, UniProt P06401); experiment: Competitive ligand-binding assay (fluorescent polarization), recombinant PR LBD; conditions: 1 nM fluorescently labeled ligand, 5 h incubation, serial dilution
T3 sequence (P06401 679-913 limits assumed): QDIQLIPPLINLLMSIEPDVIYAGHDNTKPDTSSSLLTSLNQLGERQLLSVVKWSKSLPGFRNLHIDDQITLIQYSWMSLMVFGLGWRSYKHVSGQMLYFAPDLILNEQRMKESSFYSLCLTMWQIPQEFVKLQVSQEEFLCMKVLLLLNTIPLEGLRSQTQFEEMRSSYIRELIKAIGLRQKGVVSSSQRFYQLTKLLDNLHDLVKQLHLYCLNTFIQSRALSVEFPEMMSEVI
Method: as §1

recombinant LBD of GR = biological target: T4, recombinant LBD of GR (Homo sapiens, UniProt P04150); experiment: Competitive ligand-binding assay (fluorescent polarization), recombinant GR LBD; conditions: 1 nM fluorescently labeled ligand, 5 h incubation, serial dilution
T4 sequence (P04150 524-758 limits assumed): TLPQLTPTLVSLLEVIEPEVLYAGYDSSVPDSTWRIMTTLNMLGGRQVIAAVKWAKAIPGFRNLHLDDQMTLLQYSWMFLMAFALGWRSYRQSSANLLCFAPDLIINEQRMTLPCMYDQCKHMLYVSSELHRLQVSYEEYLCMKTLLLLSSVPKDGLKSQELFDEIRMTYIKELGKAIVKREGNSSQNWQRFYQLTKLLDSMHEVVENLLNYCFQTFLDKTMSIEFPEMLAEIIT
Method: as §1

LNCaP cells = experiment: Androgen-dependent proliferation of LNCaP cells, alamarBlue Cell Viability Assay; format: cell-based; conditions: LNCaP treated with R1881, day 4, alamarBlue
Source text: Effects of 8d (also referred to as I-EPI-002) on androgen-dependent proliferation of LNCaP cells treated with R1881 were compared with PC3 and DU145 cell viability by alamarBlue Cell Viability Assay (FIG. 16).

- transcriptional activity of PRβ (PRE-luciferase) [1]: no effect
- binding to LBD of AR (displacement of fluorescently labeled ligand) (recombinant LBD of AR): does not bind
- binding to LBD of PR (displacement of fluorescently labeled ligand) (recombinant LBD of PR): does not bind
- binding to LBD of GR (displacement of fluorescently labeled ligand) (recombinant LBD of GR): does not bind
SMILES: CC(C)(c1ccc(OC[C@H](O)CO)cc1)c1ccc(OC[C@H](O)CCl)c(I)c1 [Compound 8d, (R)-3-(4-(2-(4-((S)-3-chloro-2-hydroxypropoxy)-3-iodophenyl)propan-2-yl)phenoxy)propane-1,2-diol]
- AR-dependent proliferation of LNCaP cells (LNCaP cells): reduced
